Reference: US20260232640A1, “COMPOSITIONS AND METHODS FOR TREATING SPINAL MUSCULAR ATROPHY” (NMD Pharma A/S, priority 2023, published 2026)
Entries after “also recorded” stand apart in the source; their conditions may differ.

Assays:
[1] = system: SMA (delta-7 mouse) animals; test: RotaRod test (latency to fall) in SMA model; type: in vivo; settings: 20 mg/kg IP; for latency to fall / running test, result in words: before vs 90 min after dosing
Method: (§1) The employed model of SMA is a genetic knock-in model of severe SMA (“delta-7 mouse”). This model was developed in The Ohio State University laboratories (Foust et al, 2010). In this study the mice were administered at post-natal day 2 via intracerebroventricular injection 40 μg of morpholino ASOs directed against ISS-N1 to increase full-length SMN protein production from SMN2 to allow the animal to live to about 90 days. Five animals aged 67 days were investigated in a study where 20 mg/kg CIC-1 inhibitor ((S)-2-(4-bromo-2-ethynylphenoxy)propionic acid) in phosphate buffered saline was administered intraperitoneally and subjected to a rotarod test battery 90 minutes after injection (single intervention) and CMAP recording 120 min after injection.
RotaRod (Harward apparatus, MA, USA) were used to explore the physical capabilities of the SMA mouse model in vivo and examined coordination ability of legs and endurance on a horizontal accelerating, rotating rod. The RotaRod test was designed to start at a low revolution rate of 5 rpm of the horizontal roll and accelerate gradually to 45 rpm over 300 seconds (maximal test time). Animals were acclimatized and trained for several weeks prior to intervention, to avoid training bias. […] This was performed prior to dosing, and then 90 min after IP dosing of 20 mg/kg of the CIC-1inhibitor.

[2] = system: SMA (delta-7 mouse) animals; test: Compound Muscle Action Potentials (CMAP) decrement, repeated sciatic nerve stimulation (EMG); type: in vivo; settings: for CMAP decrement, result in words: 10 to 50 Hz, before vs after treatment, significant from 20 to 50 Hz only; for CMAP Decrement % (10th/1st Stimulation): 20 mg/kg IP, 120 min after dosing
Method: as §1
Compound Muscle Action Potentials (CMAP) measurements were performed as previously described (Arnold et al, 2015). Briefly, the right sciatic nerve was stimulated with a pair of insulated 28-gauge monopolar needles (Teca, Oxford Instruments Medical, NY) placed in proximity to the sciatic nerve in the proximal hind limb. Recording electrodes consisted of a pair of fine ring wire electrodes (Alpine Biomed, Skovlunde, Denmark). The active recording electrode was placed distal to the knee joint over the proximal portion of the triceps surae muscle and the reference electrode over the metatarsal region of the foot. A disposable strip electrode (Carefusion, Middleton, WI) was placed on the contralateral hind limb to serve as the ground electrode. Data collection and analysis was performed using Cadwell Sierra Summit EMG unit (Cadwell laboratories, Kennewick, Washington, USA). Animals were stimulated in trains of 10 pulses of 50 μs at supramaximal voltage at 10, 20, 30, 40 and 50 Hz, with 10 seconds between stimulation trains.
This was performed prior to dosing, and then 120 min after IP dosing of 20 mg/kg of the CIC-1inhibitor. The relative amplitude from the 10th to the 1st stimulation is denoted as decrement, and a larger negative number designates a larger deficit/decrement, indicating a larger transmission failure from nerve to muscle.

[3] = system: SMA (delta-7 mouse) animals; test: Tolerability after intraperitoneal injection in SMA model; type: in vivo; settings: 20 mg/kg intraperitoneally, five animals
Method: as §1

[4] = system: healthy volunteers; test: Phase I clinical trial Part A, tolerability/safety (adverse events); type: in vivo, human
[5] = Phase I clinical trial Part A, single dose pharmacokinetics in plasma; type: in vivo, human
Method: • Collect blood (3 mL recommended) onto wet ice (K2EDTA tubes) • Immediately cool blood on crushed wet ice for maximum of 30 minutes • Harvest plasma as quickly as possible using refrigerated centrifuge by centrifuging at 2000 g for 10 minutes at 4° C. • Keep plasma on wet ice and immediately stabilise with 1:1 (v/v) addition of Water: Orthophosphoric Acid (100:2 v/v) prepared using ≥85% orthophosphoric acid and deionised water (e.g. 750 μL plasma+750 μL stabiliser). • Mix sample thoroughly. • Keep the stabilised plasma on wet ice during subsequent steps. • Divide the stabilised plasma into 5×250 μL aliquots in plastic cryotubes. • Store aliquots at nominal −70° C./−80° C. promptly.
• 1. Thaw frozen calibration standards, QC samples, blank matrix and study samples on wet ice. • 2. Vortex-mix all samples thoroughly. • 3. On wet ice aliquot 150 μL of calibration standards, QC samples, study samples, and blanks into a 2 mL 96-well plate. For the reagent blank add the same volume of Water. • 4. On wet ice add 25 μL of Methanol:Water (50:50) to wells containing blanks and the same volume of ISTD intermediate solution to all other wells. • 5. On wet ice add 125 μL of Water to each well. […] Condition SPE plate with 250 μL of Water. • 9. Load 250 μL of the sample onto the SPE plate (aspirate from the rim of the cone to avoid any debris collected at the bottom of the well). […]

[6] = Tablet dissolution (USP2 paddles, HPLC); type: physicochemical; settings: immediate release tablets; USP2 paddles 75 RPM, 900 ml dissolution media pH 6.8, 37° C.; after a maximum of 60 minutes
Method: Tablet dissolution was determined as follows.
Dissolution Media pH 6.8 was prepared by dissolving 27.3 g Na2HPO4·2H2O and 4.9 g Citric Acid in 1 L Milli-Q water. The pH was measured and adjusted if necessary to pH 6.8.
900 mL of dissolution media pH 6.8 was accurately transferred into each dissolution vessel. The apparatus was assembled, and the dissolution media was heated to 37° C.±0.5° C. The T=0 point was extracted from each vessel prior to dropping the tablets into the dissolution vessels. One tablet was gently dropped into each dissolution vessel, and rotation of the paddle was immediately started. Samples were taken that the sample extraction timepoints and analysed using the HPLC method.

For `C#Cc1cc(Br)ccc1O[C@@H](C)C(=O)O` [CIC-1 inhibitor, (S)-2-(4-bromo-2-ethynylphenoxy)propionic acid], the “Time for remaining on rotor rod” value ([1]; 90 min after dosing, delta-7 mice aged 67 days, pre-treatment 62.2 ± 40.2) was 81 ± 63.2 s, the “latency to fall / running test, result in words” value [1] was “All animals were able to stay on the rotating rod longer after treatment; also recorded: performed better in the running test” and the “latency to fall / running test, result in words” value ([1]; listed as CIC-1inhibitor) was “All animals were able to stay on the rotating rod longer after treatment”. The “CMAP decrement, result in words” value [2] was “only minimal decrement visible; also recorded: less pronounced in all animals at all frequencies; also recorded: reduced decrement in EMG (RNS) at all tested frequencies”, the “CMAP decrement, result in words” value ([2]; listed as CIC-1inhibitor) was “less pronounced in all animals at all frequencies” and the improvement in decrement ([2]; at 50 Hz, mouse model of SMA) was 75%. The “CMAP Decrement % (10th/1st Stimulation)” value ([2]; stimulation frequency 10 Hz) was −7.0 ± 5.4%, the “CMAP Decrement % (10th/1st Stimulation)” value ([2]; stimulation frequency 20 Hz) was −8.1 ± 5.1% and the “CMAP Decrement % (10th/1st Stimulation)” value ([2]; stimulation frequency 30 Hz) was −8.4 ± 6.0%. The “CMAP Decrement % (10th/1st Stimulation)” value ([2]; stimulation frequency 40 Hz) was −8.9 ± 4.9%, the “CMAP Decrement % (10th/1st Stimulation)” value ([2]; stimulation frequency 50 Hz) was −7.7 ± 6.5% and the “adverse reactions to the compound injection” value [3] was “did not exhibit any adverse reactions to the compound injection, nor any signs of muscle stiffness”.

In the case of `C[C@H](Oc1ccc(Br)cc1-c1ccon1)C(=O)O` [NMD670, (2S)-2-[4-bromo-2-(1,2-oxazol-3-yl)phenoxy]propanoic acid], the “adverse event that stopped dose escalation” value ([4]; 1600 mg, dose level 7, spontaneously and fully resolved within hours) is reported as “myotonia of moderate intensity observed in one subject”, the subject discontinuations ([4]; Part A) is reported as “no subject discontinuations” and the “total number of AEs reported” value ([4]; Part A, 35 healthy subjects, single doses) is reported as 70. For the same compound, the “intensity of AEs” value ([4]; except one AE of myotonia (1600 mg) and tooth extraction (unrelated, 50 mg), moderate) was “Most AEs were mild”, the “dose-related AE” value ([4]; highest dose levels tested (1200 mg and 1600 mg), single dose) was “transient myotonia” and the “number of AEs at least possibly drug related” value ([4]; of 70 AEs, Part A) was 47. The “share of AEs at least possibly drug related” value ([4]; of 70 AEs, Part A) was 67%, the “serious or severe adverse effects” value ([4]; single doses 50 to 1600 mg, 35 healthy subjects) was “No serious or severe adverse effects were reported” and the half-life ([5]; plasma, oral, human, stated in rationale for washout period) was about 4 h. For the same compound, the “T1/2 (mean ± SD, hr)” value ([5]; single oral dose 100 mg, healthy male subjects) was 5.07 ± 0.63 h and the “NMD670 released from the tablets” value [6] was “Not less than 80%”.
